Measurements: paper PMC6804459 (Acta Pharmaceutica Sinica. B, 2019)

Target: recombinant human PrP (rhPrP, PrP^C) (Homo sapiens, UniProt P04156)
Test: biochemical
Format: binding

`Cc1cc(Nc2ccc(NC(=O)c3ccc(Nc4ccnc5ccccc45)cc3)cc2)nc(N)n1` [SGI-1027] showed a Kd of 1610 nM.
